Assay results from patent US20100160443A1, “COMPOUNDS USEFUL FOR TREATING NEUROLOGICAL DISORDERS” (Yissum Research Development Company of The Hebrew …, priority 2003, published 2010).

Assay: Plasma drug concentration and pharmacokinetics after i.p. administration to SNL operated rats
Format: in vivo, rat
Conditions: for minimal plasma concentration associated with the antiallodynic effect: SNL rats; for CL/F / Cmax / MRT / Tmax / half-life: rat, ip
Method: 0.5% MC, and […] of blood were collected from the amputated tail tip at each of three time points after injection. Blood was withdrawn for group 1 at 15, 60 and 180 min after dosing; for group 2 at 30, 90 and 240 min after dosing and for group 3 at 45, 120 and 360 min after dosing. Plasma was immediately separated by centrifugation at 3000 g for 15 min and stored at −20° C. until analyzed.
Plasma levels of VPA and DID were determined by gas chromatography (GC). An HP5890 series II GC equipped with FID detector, HP7673 autosampler, for DID HP-5 capillary column (0.25 μm×15 m×0.25 mm) was used. The temperature program was as follows: injector temperature 250° C.; initial temperature, 60° C. for 3 min; gradient of 15° C. min-1 until 180° C.; hold 5 min. For each drug, plasma levels obtained from 3 rats at each time point were averaged. 25 μl of internal standard solution (50 mg L^−1 of VPD for the DID assay) and 200 μl of 0.1M NaOH were added to 50 μl of plasma. The mixture was vortexed, and 1 ml of chloroform was added. The phases were separated, and the chloroform was evaporated. The dry residue was redissolved in 50 μl of chloroform, and 1 μl was injected into the gas chromatograph. Calibration curves were prepared separately by spiking naïve rat plasma samples with 1.56, 2.5, 3.12, 6.25, 12.5, 25.0, 37.5, 50.0, 75.0 and 100.0 mg L^−1 of DID. The limit of quantification (LOQ) of the method was 1.56 μg/ml, and the coefficient of variation (CV %) was <15% at all analyzed concentrations including LOQ.
The temperature program was as follows: injector temperature 280° C.; oven temperature, 135° C. 30 μl of internal standard solution (250 mg L-1 of 1-methyl-1cyclohexane carboxylic acid, MCCA, in MeOH) and 125 μl of 5N Hydrochloric acid (HCl) were added to 250 μl of plasma. The mixture was vortexed, and 2 ml of chloroform was added. The phases were separated, and the 1 ml of NaOH was added. 200 μl of HCl 5N and 2 ml of chloroform were added to the aqueous phase. The organic layer was evaporated and dry residue was redissolved in 50 μl of chloroform, and 30 μl was injected into the gas chromatograph. […] LOQ of the method was 25 mg L-1, and the coefficient of variation (CV %) was <15% at all analyzed concentrations including LOQ.
PK parameters were determined by non-compartmental analysis using the pharmacokinetic software package WinNonlin, version 4.0.1 (SCI Software, Lexington, Ky., U.S.A.; Yamaoka, et al., 1978 (YAMAOKA, K., […], T., & UNO, T. (1978). Statistical moments in pharmacokinetics. J Pharmacokinet. Biopharm., 6, 547-558); Gibaldi & Perrier, 1982 (GIBALDI, M., & PERRIER, D. (1982). Pharmacokinetics (2nd ed.). pp. 199-219 Marcel Dekker: New York); Rowland & Tozer, 1995 (ROWLAND, M., & TOZER, T. (1995). Pharmacological Response. In: Clinical Pharamcokeintics. pp. 340-365) Baltimore: Williams & Wilkins)). The terminal half-life (t½) was calculated as 0.693/β, where β is the linear terminal slope of the concentration (C)-versus-time curve. The area under the C-versus-time curve (AUC) was calculated by trapezoidal rule with extrapolation to infinity. The mean residence time (MRT) was calculated from the quotient AUMC/AUC, where AUMC is the area under the concentration-time product versus time curve from zero to infinity. Total (apparent) clearance (CL/F) was calculated from the quotient of […] with F being the absolute bioavailability following i.p. administration. The apparent volume of distribution (Vβ/F) was calculated from the quotient of CL and β. The peak plasma concentration (Cmax) and the time to reach Cmax (tmax) were determined empirically by visual inspection.

[1] = DID 40 mg kg^−1 i.p., plasma, SNL operated rats

minimal plasma concentration associated with the antiallodynic effect (VPA 300 mg kg^−1 i.p.) [mg/L]	CL/F (plasma, 300 mg/kg) [mL/min/kg]	Cmax (plasma, 300 mg/kg) [µg/mL]	MRT (plasma, 300 mg/kg) [h]	Tmax (plasma, 300 mg/kg) [min]	half-life (plasma, 300 mg/kg) [min]	SMILES	minimal plasma concentration associated with the antiallodynic effect (DID 40 mg kg^−1 i.p.) [mg/L]	Vβ/F [1] [L/kg]	CL/F [1] [mL/min/kg]	Cmax [1] [µg/mL]	MRT [1] [h]	Tmax [1] [min]	half-life [1] [min]
–	–	–	–	–	–	CC(C)C(C(N)=O)C(C)C [DID, diisopropylacetamide]	7	1.2	8.33	28	2.4	15	90
125	3.33	515	5.8	30	276	CCCC(CCC)C(=O)O [VPA, Valproic acid, reference compound]	–	–	–	–	–	–	–
